Reference: ChEMBL document CHEMBL3046040, “Synthesis, cytostatic and anti-viral activity evaluation of the novel acyclic nucleoside analogues containing a sterically constrained (Z)-4-amino-2-butenyl moiety” (Med Chem Res, 2011)
Active and inactive are the calls of the source. No cut-off for these calls is given here.

Experiments:
Coxsackievirus B4 [1] = assay: Antiviral activity against Human coxsackievirus B4 infected HeLa cells assessed as inhibition of virus-induced cytopathic effect; type: functional, organism-based
Coxsackievirus B4 [2] = assay: Antiviral activity against Human coxsackievirus B4 infected Vero cells assessed as inhibition of virus-induced cytopathic effect; type: functional, organism-based
Reovirus sp. = assay: Antiviral activity against Mammalian orthoreovirus 1 infected Vero cells assessed as inhibition of virus-induced cytopathic effect; type: functional, organism-based
Human respirovirus 3 = assay: Antiviral activity against Human parainfluenza virus 3 infected Vero cells assessed as inhibition of virus-induced cytopathic effect; type: functional, organism-based
Human alphaherpesvirus 1 = assay: Antiviral activity against Human herpesvirus 1 strain KOS infected in HEL cells assessed as inhibition of virus-induced cytopathic effect; type: functional, organism-based
Influenza A virus = assay: Antiviral activity against Unidentified Influenza A virus ([…]) infected MDCK cells assessed as inhibition of virus-induced cytopathic effect; type: functional, organism-based; conditions: Influenza A virus (H1N1)
Sindbis virus = assay: Antiviral activity against Sindbis virus infected Vero cells assessed as inhibition of virus-induced cytopathic effect; type: functional, organism-based
Influenza B virus = assay: Antiviral activity against Influenza B virus infected MDCK cells assessed as inhibition of virus-induced cytopathic effect; type: functional, organism-based
Punta Toro virus = assay: Antiviral activity against Punta Toro virus infected Vero cells assessed as inhibition of virus-induced cytopathic effect; type: functional, organism-based
[3] = system: Respiratory syncytial virus; assay: Antiviral activity against Respiratory syncytial virus infected HeLa cells assessed as inhibition of virus-induced cytopathic effect; type: functional, organism-based
Human alphaherpesvirus 2 = assay: Antiviral activity against Human herpesvirus 2 strain G infected HEL cells assessed as inhibition of virus-induced cytopathic effect; type: functional, organism-based
Influenza A virus H3N2 = assay: Antiviral activity against Influenza A virus H3N2 infected MDCK cells assessed as inhibition of virus-induced cytopathic effect; type: functional, organism-based
[4] = system: Vesicular stomatitis virus; assay: Antiviral activity against Vesicular stomatitis virus infected HeLa cells assessed as inhibition of virus-induced cytopathic effect; type: functional, organism-based
[5] = system: Human immunodeficiency virus 1; assay: Antiviral activity against Human immunodeficiency virus 1 IIIB infected CEM cells assessed as inhibition of virus-induced giant cell formation after 4 days by microscopic analysis; type: functional, organism-based; conditions: CCRF-CEM, 96 h
WI-38 = assay: Antiproliferative activity against Homo sapiens (human) WI38 cells by MTT assay; type: cell-based
MIA PaCa-2 = assay: Antiproliferative activity against Homo sapiens (human) MIAPaCa2 cells by MTT assay; type: functional, cell-based
[6] = system: Human immunodeficiency virus 2; assay: Antiviral activity against Human immunodeficiency virus type 2 (ISOLATE ROD) infected CEM cells assessed as inhibition of virus-induced giant cell formation after 4 days by microscopic analysis; type: functional, organism-based; conditions: Human immunodeficiency virus 2, ISOLATE ROD, CCRF-CEM, 96 h
HepG2 = assay: Antiproliferative activity against Homo sapiens (human) HepG2 cells by MTT assay; type: functional, cell-based
SW-620 = assay: Antiproliferative activity against Homo sapiens (human) SW620 cells by MTT assay; type: functional, cell-based
[7] = target: Human immunodeficiency virus type 1 reverse transcriptase (Human immunodeficiency virus 1) (UniProt Q72547); assay: Inhibition of Human immunodeficiency virus 1 recombinant reverse transcriptase at 500 uM
MOLT-4 = assay: Cytostatic activity against Homo sapiens (human) Molt4/C8 cells after 72 hr by Coulter counting analysis; type: functional, cell-based; conditions: MOLT-4, 72 h
CCRF-CEM = assay: Cytostatic activity against Homo sapiens (human) CEM cells after 72 hr by Coulter counting analysis; type: functional, cell-based
L1210 = assay: Cytostatic activity against Mus musculus (mouse) L1210 cells after 48 hr by Coulter counting analysis; type: functional, cell-based
MCF7 = assay: Antiproliferative activity against Homo sapiens (human) MCF7 cells by MTT assay; type: functional, cell-based
HeLa = assay: Antiproliferative activity against Homo sapiens (human) HeLa cells by MTT assay; type: functional, cell-based

SMILES	Activity (Coxsackievirus B4 [1])	Activity (Coxsackievirus B4 [2])	Activity (Reovirus sp.)	Activity (Human respirovirus 3)	Activity (Human alphaherpesvirus 1)	Activity (Influenza A virus)	Activity (Sindbis virus)	Activity (Influenza B virus)	Activity (Punta Toro virus)	Activity [3]	Activity (Human alphaherpesvirus 2)	Activity (Influenza A virus H3N2)	Activity [4]	IC50 (WI-38) [µM]	IC50 (MIA PaCa-2) [µM]	IC50 (HepG2) [µM]	IC50 (SW-620; Homo sapiens, SW-620) [µM]	IC50 (MOLT-4) [µM]	IC50 (CCRF-CEM) [µM]	IC50 (L1210; Mus musculus, L1210, 48 h) [µM]	other results
NC/C=C\Cn1ccc(=O)[nH]c1=O	inactive	inactive	inactive	inactive	inactive	inactive	inactive	inactive	inactive	inactive	inactive	inactive	inactive	–	–	–	–	–	–	–	–
NC/C=C\Cn1cnc2c(N)nc(N)nc21 [listing 1 of 3 here]	inactive	inactive	inactive	inactive	inactive	inactive	inactive	inactive	inactive	inactive	inactive	inactive	inactive	–	–	–	–	–	–	–	–
NC/C=C\Cn1ccc(N)nc1=O	inactive	inactive	inactive	inactive	inactive	inactive	inactive	inactive	inactive	inactive	inactive	inactive	inactive	85.2	> 100	> 100	53.2	> 500	> 500	> 500	EC50 [5]: 96 µM; EC50 [6]: 78 µM; inhibition [7]: inactive; IC50 (MCF7): > 100 µM; IC50 (HeLa): > 100 µM
Cc1cn(C/C=C\CN)c(=O)[nH]c1=O	inactive	inactive	inactive	inactive	inactive	inactive	inactive	inactive	inactive	inactive	inactive	inactive	inactive	54.2	93.3	> 100	54.4	44	51	43	EC50 [5]: 29 µM; EC50 [6]: 41 µM; inhibition [7]: inactive; IC50 (MCF7): 49.2 µM; IC50 (HeLa): 61.6 µM
NC/C=C\Cn1cnc2c(=O)[nH]cnc21	inactive	inactive	inactive	inactive	inactive	inactive	inactive	inactive	inactive	inactive	inactive	inactive	inactive	> 100	> 100	> 100	> 100	> 500	> 500	114	EC50 [5]: ≥ 100 µM; EC50 [6]: ≥ 100 µM; IC50 (MCF7): > 100 µM; IC50 (HeLa): 69.1 µM
Cc1cn(C/C=C\CN)c(=O)nc1N	inactive	inactive	inactive	inactive	inactive	inactive	inactive	inactive	inactive	inactive	inactive	inactive	inactive	63	> 100	> 100	69.2	42	46	45	EC50 [5]: 36 µM; EC50 [6]: 38 µM; inhibition [7]: inactive; IC50 (MCF7): 67.5 µM; IC50 (HeLa): > 100 µM
NCCCCn1cnc2c(N)nc(N)nc21	inactive	inactive	inactive	inactive	inactive	inactive	inactive	inactive	inactive	inactive	inactive	inactive	inactive	–	–	–	–	–	–	–	–
NC/C=C\Cn1cnc2c(N)ncnc21	inactive	inactive	inactive	inactive	inactive	inactive	inactive	inactive	inactive	inactive	inactive	inactive	inactive	69.1	> 100	> 100	77.1	248	340	276	IC50 (MCF7): > 100 µM; IC50 (HeLa): > 100 µM
NCCCCn1cnc2c(-n3cccc3)ncnc21	inactive	inactive	inactive	inactive	inactive	inactive	inactive	inactive	inactive	inactive	inactive	inactive	inactive	> 100	> 100	74.2	40.5	140	115	91	IC50 (MCF7): > 100 µM; Activity (HeLa): Dose-dependent effect; IC50 (HeLa): 10.9 µM
NC/C=C\Cn1cnc2c(=O)[nH]c(N)nc21	inactive	inactive	inactive	inactive	inactive	inactive	inactive	inactive	inactive	inactive	inactive	inactive	inactive	–	–	–	–	–	–	–	EC50 [5]: 10 µM; EC50 [6]: 10 µM
NC/C=C\Cn1cnc2c(N)nc(N)nc21 [listing 2 of 3 here]	–	–	–	–	–	–	–	–	–	–	–	–	–	> 100	> 100	> 100	> 100	> 500	> 500	> 500	IC50 (MCF7): > 100 µM; IC50 (HeLa): > 100 µM
NC/C=C\Cn1cnc2c(N)nc(N)nc21 [listing 3 of 3 here]	–	–	–	–	–	–	–	–	–	–	–	–	–	–	–	–	–	–	–	–	IC50 (SW-620; sw-620): 98.8 µM; IC50 (L1210; l1210): 350 µM
NC/C=C\Cn1cnc2c(Cl)nc(N)nc21	inactive	inactive	inactive	inactive	inactive	inactive	inactive	inactive	inactive	inactive	inactive	inactive	inactive	> 100	> 100	> 100	> 100	> 500	> 500	> 500	EC50 [5]: ≥ 100 µM; EC50 [6]: ≥ 100 µM; IC50 (MCF7): > 100 µM; Activity (HeLa): Dose-dependent effect; IC50 (HeLa): 54 µM
